Reference: patent US20240409523A1, “SUGAR AMIDES AND MIXTURES THEREOF” (Clariant International Ltd, priority 2021, published 2024)

How the values were obtained:
Format in all cases: cell-based
Serratia marcescens = assay: MIC, agar dilution (bacteria); settings: Serratia marcescens (B); Caso-Agar, pH 7 (+/−0.2)
Experimental: (§1) For testing the inhibition of bacteria, the sample was diluted in demineralized water and added in different concentrations to liquid Caso-Agar at 50° C. and is buffered to pH 7 (+/−0.2). […] Each of the solutions is poured into a petri-dish and inoculated with the same amount of bacteria, yeast or mold respectively. The minimum inhibitory concentration (MIC) is the lowest concentration of the sample that inhibits the growth of the respective microorganism where the next lowest dilution fails to inhibit the growth of said microorganism.

Escherichia coli = assay: MIC, agar dilution (bacteria); settings: Escherichia coli (B); Caso-Agar, pH 7 (+/−0.2)
Experimental: as §1

Staphylococcus aureus = assay: MIC, agar dilution (bacteria); settings: Staphylococcus aureus (B); Caso-Agar, pH 7 (+/−0.2)
Experimental: as §1

Burkholderia cepacia = assay: MIC, agar dilution (bacteria); settings: Burkholderia cepacia (B); Caso-Agar, pH 7 (+/−0.2)
Experimental: as §1

Pseudomonas aeruginosa = assay: MIC, agar dilution (bacteria); settings: Pseudomonas aeruginosa (B); Caso-Agar, pH 7 (+/−0.2)
Experimental: as §1

Pluralibacter gergoviae = assay: MIC, agar dilution (bacteria); settings: Pluralibacter gergoviae (B); Caso-Agar, pH 7 (+/−0.2)
Experimental: as §1

Klebsiella pneumoniae = assay: MIC, agar dilution (bacteria); settings: Klebsiella pneumoniae (B); Caso-Agar, pH 7 (+/−0.2)
Experimental: as §1

Enterobacter aerogenes = assay: MIC, agar dilution (bacteria); settings: Enterobacter aerogenes (B); Caso-Agar, pH 7 (+/−0.2)
Experimental: as §1

Penicillium funicolosum = assay: MIC, agar dilution (yeast and mold); settings: Penicillium funicolosum (M); Sabouraud-4% Dextrose-Agar, pH 5.6 (+/−0.2)
Experimental: as §1

Aspergillus terreus = assay: MIC, agar dilution (yeast and mold); settings: Aspergillus terreus (M); Sabouraud-4% Dextrose-Agar, pH 5.6 (+/−0.2)
Experimental: as §1

Fusarium solani = assay: MIC, agar dilution (yeast and mold); settings: Fusarium solani (M); Sabouraud-4% Dextrose-Agar, pH 5.6 (+/−0.2)
Experimental: as §1

Penicillium minioluteum = assay: MIC, agar dilution (yeast and mold); settings: Penicillium minioluteum (M); Sabouraud-4% Dextrose-Agar, pH 5.6 (+/−0.2)
Experimental: as §1

Saccharomyces cerevisiae = assay: MIC, agar dilution (yeast and mold); settings: Saccharomyces cerevisiae (Y); Sabouraud-4% Dextrose-Agar, pH 5.6 (+/−0.2)
Experimental: as §1

Aspergillus brasiliensis = assay: MIC, agar dilution (yeast and mold); settings: Aspergillus brasiliensis (M); Sabouraud-4% Dextrose-Agar, pH 5.6 (+/−0.2)
Experimental: as §1

Candida parapsilosis = assay: MIC, agar dilution (yeast and mold); settings: Candida parapsilosis (Y); Sabouraud-4% Dextrose-Agar, pH 5.6 (+/−0.2)
Experimental: as §1

Candida albicans = assay: MIC, agar dilution (yeast and mold); settings: Candida albicans (Y); Sabouraud-4% Dextrose-Agar, pH 5.6 (+/−0.2)
Experimental: as §1

In the case of “Cyclic N-Octanoyl/Decanoyl-N-Methylxylosamide [N-Methyl Xylosamid]”, the “MIC of N-Methyl Xylosamid* (70% active) in water” value (“MIC … (70% active) in water” for short) (Serratia marcescens) is reported as 10000 ppm, the “MIC … (70% active) in water” value (Escherichia coli) is reported as 15000 ppm and the “MIC … (70% active) in water” value (Staphylococcus aureus) is reported as <500 ppm. For the same substance, the “MIC … (70% active) in water” value (Burkholderia cepacia) was 7500 ppm, the “MIC … (70% active) in water” value (Pseudomonas aeruginosa) was 10000 ppm and the “MIC … (70% active) in water” value (Pluralibacter gergoviae) was 15000 ppm. For the same substance, the “MIC … (70% active) in water” value (Klebsiella pneumoniae) was 1000 ppm, the “MIC … (70% active) in water” value (Enterobacter aerogenes) was 15000 ppm and the “MIC … (70% active) in water” value (Penicillium funicolosum) was 1000 ppm. For the same substance, the “MIC … (70% active) in water” value (Aspergillus terreus) was 3000 ppm, the “MIC … (70% active) in water” value (Fusarium solani) was 1000 ppm and the “MIC … (70% active) in water” value (Penicillium minioluteum) was 1500 ppm. For the same substance, the “MIC … (70% active) in water” value (Saccharomyces cerevisiae) was 1000 ppm, the “MIC … (70% active) in water” value (Aspergillus brasiliensis) was 2000 ppm and the “MIC … (70% active) in water” value (Candida parapsilosis) was 7500 ppm. For the same substance, the “MIC … (70% active) in water” value (Candida albicans) was 3000 ppm.
